This note sets out measurements from ChEMBL document CHEMBL1126385, “-alkoxyphenol leukotriene B4 receptor antagonists” (Bioorg Med Chem Lett, 1992).

The subject of this experiment is Cavia porcellus. Nature of the experiment: Effective dose for inhibition of gas trapping in vivo in a guinea pig model of LTB4-induced airway obstruction. Type of experiment: functional.

Each structure is given as a SMILES string.

In turn, `CCOc1cc(CC)c(OCCCCCC(C)(C)c2nn[n-]n2)cc1O.[Na+]` yielded a 50% effective dose (ED50) of 0.3 mg/kg.

One may read the ED50 as the dose at which the effect has come halfway, by size or by number of responders. Low values mean greater potency, high ones weaker potency.
